“And” between values parts separate entries of the source, which are not always exact repeats. Equal values may be shown once.
What was measured:
[1] = tested on: Influenza A strain A/WSN/33 (H1N1); format: cell-based, Influenza A virus
MDCK-II cells [2] = test: Parallel residual cytotoxicity test without virus on MDCK-II assay cells (Example 6); format: cell-based, canine; details: after filtration, no virus, 1% LTX-7 or 0.2% Triton X-100
Method: (§1) Appropriate controls were also performed.

[3] = tested on: SARS-CoV-2 isolate England/02/2020; format: cell-based; details: SARS-CoV-2, contact time 1 h at RT; 1% LTX-12 (w/v) in PBS or 0.2% Triton in PBS; Vero cells
Vero cells = test: Parallel residual cytotoxicity test without virus on Vero assay cells (Example 5); format: cell-based, African green monkey; details: after filtration, no virus, 1% LTX-12 or 0.2% Triton
Method: as §1

[4] = tested on: Lenti virus-like particle expressing VSV-G
[5] = tested on: Influenza A virus (IAV, A/WSN/33); format: cell-based
MDCK-II cells [6] = test: Parallel residual cytotoxicity test without virus on MDCK-II assay cells (Example 2); format: cell-based, canine; details: 1% LTX-109, after filtration, no virus
Method: as §1

[7] = tested on: Respiratory Syncytial Virus (RSV); test: TCID50 virucidal assay, LTX-109 against RSV on Hep2 cells; format: cell-based; details: for TCID50/ml ± SEM (average virus titre recovered): 1 h incubation, Hep2 cells
Method: The experiment was performed in triplicates.
as §1

SARS-CoV-2 = format: cell-based
Hep2 cells = details: 0.1% LTX-109, after filtration, no virus
Method: After 1 hour, the incubation was stopped by adding an excess of cold media, and the formulation was physically separated from the virus through a filter to reduce cytotoxicity on the assay cells. […] Infectious virus was quantified through a serial dilution (a series of ten-fold dilutions) on monolayers of Hep2 cells in microtitre plates (Hep2 cells are mammalian cells capable of displaying a cytopathic effect (CPE) upon viral infection). The starting solution for the serial dilution (i.e. the neat (or undiluted) solution) was obtained by re-suspending the virus that was separated via the filtration step in 1 ml of media. For each dilution of the virus in the dilution series, eight wells of the microtitre plate were tested (i.e. each dilution of virus was applied to eight separate wells, each well containing a Hep2 cell monolayer). Appropriate controls were also performed. […] The TCID50 (TCID50/ml) assay (Tissue Culture Infectious Dose 50 assay) is a type of endpoint dilution assay that is well known in the art and routinely used to quantitatively measure virus titres. TCID50/ml provides a measure of infectious units of virus/ml. “/ml” refers to/ml of the starting solution (i.e. neat/undiluted solution) mentioned above. […]

Structure (SMILES): N=C(N)NCCCC(N)C(=O)NC(Cc1ccc(-c2ccc3ccccc3c2)cc1)C(=O)NC(CCCNC(=N)N)C(=O)NCCc1ccccc1 (centres unmarked) [LTX-7, Arg-Phe(4-(2-Naphthyl))-Arg-NH—CH2—CH2-Ph]
- Rounded % (reduction) ([1]; contact time 1 h, 1% LTX-7 or 0.2% Triton X-100): 99.99%
- TCID50/ml ± SEM (average virus titre recovered) ([1]; contact time 1 h at RT, 1% LTX-7 (w/v) in PBS or 0.2% Triton X-100 in PBS, MDCK-II cells): 1.58E+01 TCID50/ml and 1.58E+01 ± 0.00E+00 TCID50/ml
- Cytotoxicity on assay cells (dilution at which seen) (MDCK-II cells [2]): neat

Structure (SMILES): CC(C)(C)c1cc(C(C)(C)C)c2[nH]c(C(C)(C)C)c(CC(NC(=O)C(N)CCCCN)C(=O)NC(CCCCN)C(=O)NCCc3ccccc3)c2c1 (stereo not drawn) [LTX-12, Lys-Tbt-Lys-NH—CH2—CH2-Ph]
- TCID50/ml ± SEM (average virus titre recovered) [3]: 1.58E+02 TCID50/ml and 1.58E+02 ± 0.00E+00 TCID50/ml
- Cytotoxicity on assay cells (Vero cells): no significant cytotoxicity

Structure (SMILES): CC(C)(C)c1cc(C(C)(C)C)c2[nH]c(C(C)(C)C)c(CC(NC(=O)C(N)CCCNC(=N)N)C(=O)NC(CCCNC(=N)N)C(=O)NCCc3ccccc3)c2c1 (centres unmarked) [LTX-109]
- Effect on envelope of Lenti-virus-like particles (electron microscopy) [4]: disrupted (or dissolved) envelope
- TCID50/ml ± SEM (average virus titre recovered) ([5]; 1% LTX-109 (w/v) in PBS, 1 h incubation, MDCK-II cells): 1.58E+01 TCID50/ml and 1.58E+01 ± 0.00E+00 TCID50/ml
- Log (virus titre) ([5]; 1% LTX-109, 1 h): 1.20 Log
- Percentage (decrease in infectivity vs PBS control) ([5]; 1% LTX-109, 1 h): 99.9% and 99.969%
- With Filtration: cytotoxicity on assay cells (dilution up to which seen) (MDCK-II cells [6]): only up to the first dilution
- TCID50/ml ± SEM (average virus titre recovered) ([7]; 0.1% LTX-109 (w/v) in PBS): 8.76E+01 TCID50/ml and 8.76E+01 ± 4.11E+01 TCID50/ml
- Log (virus titre) ([7]; 0.1% LTX-109, 1 h): 1.78 Log
- Percentage (decrease in infectivity vs PBS control) ([7]; 0.1% LTX-109, 1 h): 99.9% and 99.97%
- TCID50/ml ± SEM (average virus titre recovered) ([7]; 1% LTX-109 (w/v) in PBS): 1.58E+02 TCID50/ml and 1.58E+02 ± 0.00E+00 TCID50/ml
- Log (virus titre) ([7]; 1% LTX-109, 1 h): 2.20 Log
- Percentage (decrease in infectivity vs PBS control) ([7]; 1% LTX-109, 1 h): 99.9% and 99.949%
- TCID50/ml ± SEM (average virus titre recovered) (SARS-CoV-2; SARS-CoV-2, 1% LTX-109 (w/v) in PBS, 1 h incubation, Vero cells): 1.99E+02 TCID50/ml and 1.99E+02 ± 4.11E+01 TCID50/ml
- Log (virus titre) (SARS-CoV-2; SARS-CoV-2, 1% LTX-109, 1 h): 2.28 Log
- Percentage (decrease in infectivity vs PBS control) (SARS-CoV-2; SARS-CoV-2, 1% LTX-109, 1 h): 99.99% and 99.995%
- With Filtration: cytotoxicity on assay cells (Hep2 cells): No cytotoxicity
